{"source": "patent US20020076434A1", "about": "“Liposomal retinoid therapy in hormone refractory prostate cancer” (Aronex Pharmaceuticals, Inc., priority 2000, published 2002)", "origin": "cited, not measured here", "key": {"HRPC [1]": {"tested_on": "HRPC"}, "HRPC [2]": {"tested_on": "HRPC", "conditions": "Kelly: 50 mg/m^2 every 8 hours for 8 weeks, 14 patients; Trump: days 1-14 every 22 days, 17 patients"}, "[3]": {"conditions": "one patient achieving CR, baseline PSA 25.0 ng/mL"}}, "data": [{"smiles": "CC1=C(/C=C/C(C)=C/C=C/C(C)=C/C(=O)O)C(C)(C)CCC1", "note": "[oral ATRA, all trans retinoic acid]", "values": [{"measurement": "Number of biological responses", "setting": "HRPC [1]; 26 HRPC patients, oral 45 mg/m^2 daily for 7 days, 7 days off, resumed Day 14", "value": 4}, {"measurement": "Maximum response duration", "setting": "HRPC [1]; [3]", "value": 3, "unit": "month"}, {"measurement": "Time serum PSA remained within normal limits after the last dose", "setting": "HRPC [1]; [3]", "value": 8, "unit": "weeks"}, {"measurement": "Tumor response", "setting": "HRPC [2]", "value": "little tumor response"}]}]}
